Source: patent publication US11019820B2 (BASF SE, priority 2013, dated 2021)
Like-named read-outs stand apart in the source and are kept apart here.

What was measured:
Type in all cases: in vivo
[1] = tested on: Nilaparvata lugens; test: Rice brown plant hopper (Nilaparvata lugens) rice seedling spray test; conditions: read-out: mortality in comparison with untreated controls
Experimental: (§1) Rice seedlings were cleaned and washed 24 hours before spraying. The active compounds were formulated in 50:50 acetone:water (vol:vol) and 0.1% vol/vol surfactant (EL 620) was added. Potted rice seedlings were sprayed with 5 ml test solution, air dried, placed in cages and inoculated with 10 adults. Treated rice plants were kept at about 28-29° C. and relative humidity of about 50-60%. Percent mortality was recorded after 72 hours.

[2] = tested on: Megoura viciae; test: Vetch aphid (Megoura viciae) leaf disk test; conditions: foliar, 120 h, read-out: mortality in comparison with untreated controls (aphid mortality)
Experimental: For evaluating control of vetch aphid (Megoura viciae) through contact or systemic means the test unit consisted of 24-well-microtiter plates containing broad bean leaf disks.
The compounds were formulated using a solution containing 75% v/v water and 25% v/v DMSO. Different concentrations of formulated compounds were sprayed onto the leaf disks at 2.5 μl, using a custom built micro atomizer, at two replications.
After application, the leaf disks were air-dried and 5-8 adult aphids placed on the leaf disks inside the microtiter plate wells. The aphids were then allowed to suck on the treated leaf disks and incubated at about 23±1° C. and about 50±5% relative humidity for 5 days. Aphid mortality and fecundity was then visually assessed.

[3] = tested on: Myzus persicae; test: Green peach aphid (Myzus persicae) systemic artificial diet test; conditions: 72 h, read-out: mortality in comparison with untreated controls (aphid mortality)
Description: For evaluating control of green peach aphid (Myzus persicae) through systemic means the test unit consisted of 96-well-microtiter plates containing liquid artificial diet under an artificial membrane.
The compounds were formulated using a solution containing 75% v/v water and 25% v/v DMSO. Different concentrations of formulated compounds were pipetted into the aphid diet, using a custom built pipetter, at two replications.
After application, 5-8 adult aphids were placed on the artificial membrane inside the microtiter plate wells. The aphids were then allowed to suck on the treated aphid diet and incubated at about 23±1° C. and about 50±5% relative humidity for 3 days. Aphid mortality and fecundity was then visually assessed.

[4] = tested on: Anthonomus grandis; test: Boll weevil (Anthonomus grandis) diet microtiter plate test; conditions: 120 h, read-out: mortality in comparison with untreated controls (egg and larval mortality)
Experimental: For evaluating control of boll weevil (Anthonomus grandis) the test unit consisted of 96-well-microtiter plates containing an insect diet and 5-10 A. grandis eggs.
(§2) The compounds were formulated using a solution containing 75% v/v water and 25% v/v DMSO. Different concentrations of formulated compounds were sprayed onto the insect diet at 5 μl, using a custom built micro atomizer, at two replications.
After application, microtiter plates were incubated at about 25±1° C. and about 75±5% relative humidity for 5 days. Egg and larval mortality was then visually assessed.

[5] = tested on: Dichromothrips corbetti; test: Orchid thrips (Dichromothrips corbetti) floral-immersion test; conditions: read-out: mortality in comparison with untreated controls
Experimental: Dichromothrips corbetti adults used for bioassay were obtained from a colony maintained continuously under laboratory conditions. For testing purposes, the test compound is diluted in a 1:1 mixture of acetone:water (vol:vol), plus 0.01% vol/vol Alkannuls® EL 620 surfactant.
Thrips potency of each compound was evaluated by using a floral-immersion technique. Plastic petri dishes were used as test arenas. All petals of individual, intact orchid flowers were dipped into treatment solution and allowed to dry. Treated flowers were placed into individual petri dishes along with about 20 adult thrips. The petri dishes were then covered with lids. All test arenas were held under continuous light and a temperature of about 28° C. for duration of the assay. After 3 days, the numbers of live thrips were counted on each flower, and along inner walls of each petri dish. The percent mortality was recorded 72 hours after treatment.

[6] = tested on: Nephotettix virescens; test: Rice green leafhopper (Nephotettix virescens) rice seedling spray test; conditions: read-out: mortality in comparison with untreated controls
Experimental: as §1, with “(vol:vol),” for “(vol:vol)”

[7] = tested on: Heliothis virescens; test: Tobacco budworm (Heliothis virescens) diet microtiter plate test; conditions: 120 h, read-out: mortality in comparison with untreated controls (egg and larval mortality)
Experimental: as §2, with “For evaluating control of tobacco budworm (Heliothis virescens) the test unit consisted of 96-well-microtiter plates containing an insect diet and 15-25 H. virescens eggs. The” for “The”, “at 10” for “at 5”
After application, microtiter plates were incubated at about 28±1° C. and about 80±5% relative humidity for 5 days. Egg and larval mortality was then visually assessed.

[8] = 500 ppm, sprayed rice seedlings, after 72 hours
[9] = 2500 ppm, sprayed broad bean leaf disks, 5 days
[10] = 2500 ppm, in aphid diet, 3 days
[11] = 2500 ppm, sprayed onto insect diet, 5 days
[12] = 500 ppm, floral immersion, 72 hours after treatment

C[C@@H]1C[C@@H](c2cnc(Cl)s2)[n+]2c([O-])c(-c3ccccc3)c(=O)n(C)c21 (racemic) [Compound C-29]
> 75%: mortality at 500 ppm [1, 8] | mortality at 2500 ppm [2, 9] | mortality at 2500 ppm [3, 10] | mortality at 2500 ppm [4, 11] | mortality at 500 ppm [5, 12]

Cn1c2[n+](c([O-])c(-c3cccc(C(F)(F)F)c3)c1=O)[C@@H](c1cnc(Cl)s1)CC2 (single isomer, unassigned) [Compound C-28]
> 75%: mortality at 500 ppm [1, 8] | mortality at 500 ppm [5, 12] | mortality at 500 ppm [6, 8]

C[n+]1c([O-])c(-c2ccccc2)c(=O)n2c1CCC2c1ccc(Cl)nc1 (stereo not drawn) [Compound C-1]
> 75%: mortality at 500 ppm ([1]; 72 h) | mortality at 2500 ppm [2] | mortality at 2500 ppm [3] | mortality at 2500 ppm [7] | mortality at 500 ppm ([5]; 72 h) | mortality at 500 ppm ([6]; 72 h)

CC[n+]1c([O-])c(-c2ccccc2)c(=O)n2c1CCC2c1ccc(Cl)nc1 (stereo not drawn) [Compound C-2]
> 75%: mortality at 2500 ppm [2] | mortality at 2500 ppm [3] | mortality at 500 ppm ([5]; 72 h) | mortality at 500 ppm ([6]; 72 h)

CC(C)[n+]1c([O-])c(-c2ccccc2)c(=O)n2c1CCC2c1ccc(Cl)nc1 (stereo not drawn) [Compound C-3]
> 75%: mortality at 2500 ppm ([2]; in Vicia faba) | mortality at 2500 ppm [3] | mortality at 2500 ppm [4] | mortality at 500 ppm ([5]; 72 h)

C[n+]1c([O-])c(-c2ccccc2)c(=O)n2c1CCC2c1cnc(Cl)s1 (stereo not drawn) [Compound C-6, 6-(2-chlorothiazol-5-yl)-1-methyl-4-oxo-3-phenyl-3,6,7,8-tetrahydro-2H-pyrrolo[1,2-a]pyrimidin-5-ium-2-olate]
> 75%: mortality at 500 ppm ([1]; 72 h) | mortality at 2500 ppm [2] | mortality at 2500 ppm [3] | mortality at 500 ppm ([5]; 72 h) | mortality at 500 ppm ([6]; 72 h)

C[n+]1c([O-])c(-c2ccccc2)c(=O)n2c1CCCC2c1ccc(Cl)nc1 (stereo not drawn) [Compound C-8, 6-(6-chloro-3-pyridyl)-1-methyl-4-oxo-3-phenyl-6,7,8,9-tetrahydropyrido[1,2-a]pyrimidin-5-ium-2-olate]
> 75%: mortality at 2500 ppm [2] | mortality at 2500 ppm [3] | mortality at 500 ppm ([5]; 72 h) | mortality at 500 ppm ([6]; 72 h)

CSc1ncc(C2CCCc3n2c(=O)c(-c2ccccc2)c([O-])[n+]3C)s1 (stereo not drawn) [Compound C-12]
> 75%: mortality at 2500 ppm [3, 10]

C[n+]1c([O-])c(-c2ccccc2)c(=O)n2c1CCCC2c1cnc(Cl)s1 (stereo not drawn) [Compound C-13]
> 75%: mortality at 2500 ppm [2, 9] | mortality at 2500 ppm [3, 10]

C=CCn1c([O-])c(-c2ccccc2)c(=O)[n+]2c1CCC2c1cnc(Cl)s1 (stereo not drawn) [Compound C-17]
> 75%: mortality at 2500 ppm [3, 10]

Cn1c2[n+](c([O-])c(-c3ccccc3)c1=O)C(c1cnc(Cl)s1)CO2 (stereo not drawn) [Compound C-19]
> 75%: mortality at 2500 ppm [2]

COC1=NC(c2c[n+]3c(=O)c(-c4ccccc4)c([O-])n(Cc4ccccc4)c3s2)CC1 (stereo not drawn) [Compound C-21]
> 75%: mortality at 2500 ppm [3, 10]

Cn1c2[n+](c([O-])c(-c3cccc(C(F)(F)F)c3)c1=O)C(c1cnc(Cl)s1)CC2 (stereo not drawn) [Compound C-22]
> 75%: mortality at 2500 ppm [2, 9] | mortality at 2500 ppm [3, 10] | mortality at 500 ppm [5, 12] | mortality at 500 ppm [6, 8]

Cn1c2[n+](c([O-])c(-c3ccccc3)c1=O)C(c1cnc(Cl)c(-c3ccccc3)c1)CC2 (stereo not drawn) [Compound C-23]
> 75%: mortality at 2500 ppm [3, 10]

CCn1c([O-])c(-c2ccccc2)c(=O)[n+]2c1CCC2c1cnc(Cl)s1 (stereo not drawn) [Compound C-24]
> 75%: mortality at 500 ppm [1, 8] | mortality at 2500 ppm [2, 9] | mortality at 2500 ppm [3, 10] | mortality at 500 ppm [5, 12] | mortality at 500 ppm [6, 8]

CCn1c([O-])c(-c2cccc(C(F)(F)F)c2)c(=O)[n+]2c1CCC2c1cnc(Cl)s1 (stereo not drawn) [Compound C-27]
> 75%: mortality at 2500 ppm [2, 9] | mortality at 2500 ppm [3, 10] | mortality at 500 ppm [5, 12]

C=CCn1c([O-])c(-c2cc(Cl)cc(Cl)c2)c(=O)[n+]2c1CCC2c1cnc(Cl)s1 (stereo not drawn) [Compound C-31]
> 75%: mortality at 2500 ppm [2, 9] | mortality at 2500 ppm [3, 10]

CCn1c([O-])c(-c2cccc(C(F)(F)F)c2)c(=O)[n+]2c1COC2c1ccc(Cl)nc1 (stereo not drawn) [Compound C-32]
> 75%: mortality at 2500 ppm [3]

O=c1c(-c2ccccc2)c([O-])n(Cc2ccccc2)c2[n+]1C(c1cnc(Cl)s1)CC2 (stereo not drawn) [Compound C-34]
> 75%: mortality at 2500 ppm [2, 9] | mortality at 2500 ppm [3, 10] | mortality at 500 ppm [5, 12]

CCn1c([O-])c(-c2cccc(C(F)(F)F)c2)c(=O)[n+]2c1COC2c1cnc(Cl)s1 (stereo not drawn) [Compound C-35]
> 75%: mortality at 500 ppm [5, 12]

CN1C(=O)C(c2ccccc2)=C([O-])[N+]2=C(c3cnc(Cl)s3)CSC12 (stereo not drawn) [Compound C-38]
> 75%: mortality at 500 ppm [1, 8] | mortality at 2500 ppm [2, 9] | mortality at 2500 ppm [3, 10] | mortality at 2500 ppm [7, 11] | mortality at 500 ppm [5, 12] | mortality at 500 ppm [6, 8]

Cn1c2[n+](c([O-])c(-c3ccccc3)c1=O)C(c1cnc(Cl)s1)CC2(C)C (stereo not drawn) [Compound C-40]
> 75%: mortality at 2500 ppm [2, 9] | mortality at 2500 ppm [3, 10] | mortality at 2500 ppm [4, 11]

C=CCn1c([O-])c(-c2cccc(C(F)(F)F)c2)c(=O)[n+]2c1CCC2c1cnc(Cl)s1 (stereo not drawn) [Compound C-41]
> 75%: mortality at 2500 ppm [3, 10]

CCn1c([O-])c(-c2cccc(-c3ccccc3)c2)c(=O)[n+]2c1COC2c1ccc(Cl)nc1 (stereo not drawn) [Compound C-43]
> 75%: mortality at 2500 ppm [3, 10]

CCn1c([O-])c(-c2cc(Cl)cc(Cl)c2)c(=O)[n+]2c1COC2c1ccc(Cl)nc1 (stereo not drawn) [Compound C-44]
> 75%: mortality at 2500 ppm [2] | mortality at 2500 ppm [3] | mortality at 2500 ppm [7] | mortality at 2500 ppm [4]

Cn1c2[n+](c([O-])c(-c3cccc(-c4ccccc4)c3)c1=O)C(c1cnc(Cl)s1)CC2 (stereo not drawn) [Compound C-45]
> 75%: mortality at 2500 ppm [2, 9] | mortality at 2500 ppm [3, 10] | mortality at 2500 ppm [7, 11] | mortality at 500 ppm [5, 12]

CCn1c([O-])c(-c2ccc(OC)cc2)c(=O)[n+]2c1CCC2c1cnc(Cl)s1 (stereo not drawn) [Compound C-47]
> 75%: mortality at 2500 ppm [2, 9] | mortality at 2500 ppm [3, 10] | mortality at 2500 ppm [4, 11] | mortality at 500 ppm [5, 12] | mortality at 500 ppm [6, 8]

Cn1c2[n+](c([O-])c(-c3cccc(-c4ncc(C(F)(F)F)cc4Cl)c3)c1=O)C(c1cnc(Cl)s1)CC2 (stereo not drawn) [Compound C-48]
> 75%: mortality at 2500 ppm [2, 9] | mortality at 2500 ppm [3, 10] | mortality at 500 ppm [5, 12]

CCn1c([O-])c(-c2cccc(-c3ccccc3)c2)c(=O)[n+]2c1CCC2c1cnc(Cl)s1 (stereo not drawn) [Compound C-49]
> 75%: mortality at 2500 ppm [2, 9] | mortality at 2500 ppm [3, 10] | mortality at 500 ppm [5, 12]

Cn1c2[n+](c([O-])c(-c3cc(Cl)cc(Cl)c3)c1=O)C(c1cnc(Cl)s1)CC2 (stereo not drawn) [Compound C-50]
> 75%: mortality at 2500 ppm [2, 9] | mortality at 2500 ppm [3, 10] | mortality at 500 ppm [5, 12]
